# Experimental data taken from US20260256792A1, “TREATMENT OF CHRONIC SPONTANEOUS URTICARIA BY ADMINISTERING (R)-2-[3-[4-AMINO-3-(2-FLUORO-4-PHENOXY-PHENYL)PYRAZOLO[3,4-D]PYRIMIDIN-1-YL]PIPERIDINE-1-CARBONYL]-4-METHYL-4-[4-(OXETAN-3-YL)PIPERAZIN-1-YL]PENT-2-ENENITRILE” (priority 2023, published 2026).
# Test system: moderate-to-severe chronic spontaneous urticaria (CSU)
# Test: Phase 2 CSU study: urticaria activity score over 7 days (UAS7)
# Format: in vivo, human
# Parameters: key to UAS7 Median / UAS7 Change from baseline Median / UAS7 change from baseline, Q1 / UAS7 change from baseline, Q3 / UAS7 change from baseline, Max / UAS7 Change from baseline LS Mean (SE): UAS7 points; daily UAS score ranges 0–6 points/day, over 7 days
# Details: for RRD (%) for rilzabrutinib vs. placebo, UAS7 = 0 / RRD (%) for rilzabrutinib vs. placebo, UAS7 ≤6 / Responder n (%), UAS7 = 0 / Responder n (%), UAS7 ≤6 / Imputed non-responder n (%), UAS7 = 0 / Imputed non-responder n (%), UAS7 ≤6 / Non-responder n (%), UAS7 = 0 / Non-responder n (%), UAS7 ≤6 / OR for rilzabrutinib vs. placebo, UAS7 = 0 / OR for rilzabrutinib vs. placebo, UAS7 ≤6: Omalizumab-naïve, 400 mg TID; for Non-responder, UAS7 reduction from baseline of 10 points or more / OR for rilzabrutinib vs. placebo, UAS7 reduction of 10 points or more / RRD (%) for rilzabrutinib vs. placebo, UAS7 reduction of 10 points or more / Responder, UAS7 reduction from baseline of 10 points or more / UAS7 Change from baseline Mean (SD) / UAS7 Change from baseline Median / UAS7 Mean (SD) / UAS7 Median / UAS7 Percent change from baseline Mean (SD) / UAS7 Percent change from baseline Median: Week 1
# Description: The study comprises a 12 week, randomized, double-blind, placebo-controlled, multi-center, dose-ranging efficacy and safety phase, followed by a 40 week open label extension (OLE) phase (see FIG. 1). The study consists of three phases and an optional OLE phase. […] Clinically, CSU is characterized by the spontaneous and recurrent appearance of pruritic hives. The proposed primary endpoints were the UAS7 at Week 12 in EU and EU reference countries and the ISS7 in the US. Regardless of where a participant was from, all assessments were the same. The UAS7 score is a composite score containing both the HSS7 and the ISS7. This allowed a global assessment of the two key components of urticaria: hives and itch. […] The UAS is a validated PRO measure. […] The daily UAS scores range from 0 to 6 point/day. […] Patients were to complete the UAS using the e-diary. […] The following secondary endpoints were to be analyzed using the same approach as for the primary endpoint: • Change from baseline in UAS7 at Week 4 • Change from baseline in UAS7 at Week 12 (for US and US reference countries) • Change from baseline in ISS7 at Week 12 (except US and US reference countries) • Change from baseline in HSS7 at Week 12 The following responder secondary endpoints were to be analyzed using the Cochran-Mantel-Haenszel test adjusted by region: • Proportion of participants with UAS7<6 at Week 12 • Proportion of participants with UAS7=0 at Week 12 Participants who received selected prohibited medications and/or rescue medications were to be considered as non-responders for time points after the medication usage. For other participants, all available data including those collected during the off-treatment period were to be used to determine the responder/non-responder status. Missing data were to be considered as non-responders.
# [1] = 400 mg BID, Prior Omalizumab Use
# [2] = 400 mg BID, omalizumab-naive participants
# [3] = 400 mg QPM, Prior Omalizumab Use
structure (smiles),measurement,setting,value
"CC(C)(C=C(C#N)C(=O)N1CCC[C@@H](n2nc(-c3ccc(Oc4ccccc4)cc3F)c3c(N)ncnc32)C1)N1CCN(C2COC2)CC1 [rilzabrutinib, (R)-2-[3-[4-amino-3-(2-fluoro-4-phenoxy-phenyl)pyrazolo[3,4-d]pyrimidin-1-yl]piperidine-1-carbonyl]-4-methyl-4-[4-(oxetan-3-yl)piperazin-1-yl]pent-2-enenitrile]","RRD (%) for rilzabrutinib vs. placebo, UAS7 = 0",Week 9,−0.9 %
same,"RRD (%) for rilzabrutinib vs. placebo, UAS7 ≤6",Week 9,16.7 %
same,"Responder n (%), UAS7 = 0",Week 9,3 (8.6) n (%)
same,"Responder n (%), UAS7 ≤6",Week 9,11 (31.4) n (%)
same,"Imputed non-responder n (%), UAS7 = 0",Week 10,5 (14.3) n (%)
same,"Imputed non-responder n (%), UAS7 ≤6",Week 10,5 (14.3) n (%)
same,"Non-responder n (%), UAS7 = 0",Week 10,31 (88.6) n (%)
same,"Non-responder n (%), UAS7 ≤6",Week 10,25 (71.4) n (%)
same,"OR for rilzabrutinib vs. placebo, UAS7 = 0",Week 10,0.819
same,"OR for rilzabrutinib vs. placebo, UAS7 ≤6",Week 10,2.241
same,"RRD (%) for rilzabrutinib vs. placebo, UAS7 = 0",Week 10,−1.7 %
same,"RRD (%) for rilzabrutinib vs. placebo, UAS7 ≤6",Week 10,12.1 %
same,"Responder n (%), UAS7 = 0",Week 10,4 (11.4) n (%)
same,"Responder n (%), UAS7 ≤6",Week 10,10 (28.6) n (%)
same,"Imputed non-responder n (%), UAS7 = 0",Week 11,4 (11.4) n (%)
same,"Imputed non-responder n (%), UAS7 ≤6",Week 11,4 (11.4) n (%)
same,"Non-responder n (%), UAS7 = 0",Week 11,31 (88.6) n (%)
same,"Non-responder n (%), UAS7 ≤6",Week 11,24 (68.6) n (%)
same,"OR for rilzabrutinib vs. placebo, UAS7 = 0",Week 11,1.846
same,"OR for rilzabrutinib vs. placebo, UAS7 ≤6",Week 11,1.971
same,"RRD (%) for rilzabrutinib vs. placebo, UAS7 = 0",Week 11,4.3 %
same,"RRD (%) for rilzabrutinib vs. placebo, UAS7 ≤6",Week 11,11.2 %
same,"Responder n (%), UAS7 = 0",Week 11,4 (11.4) n (%)
same,"Responder n (%), UAS7 ≤6",Week 11,11 (31.4) n (%)
same,"Imputed non-responder n (%), UAS7 = 0",Week 12,8 (22.9) n (%)
same,"Imputed non-responder n (%), UAS7 ≤6",Week 12,8 (22.9) n (%)
same,"Non-responder n (%), UAS7 = 0",Week 12,28 (80.0) n (%)
same,"Non-responder n (%), UAS7 ≤6",Week 12,23 (65.7) n (%)
same,"OR for rilzabrutinib vs. placebo, UAS7 = 0",Week 12,1.800
same,"OR for rilzabrutinib vs. placebo, UAS7 ≤6",Week 12,3.980
same,"RRD (%) for rilzabrutinib vs. placebo, UAS7 = 0",Week 12,6.9 %
same,"RRD (%) for rilzabrutinib vs. placebo, UAS7 ≤6",Week 12,20.3 %
same,"Responder n (%), UAS7 = 0",Week 12,7 (20.0) n (%)
same,"Responder n (%), UAS7 ≤6",Week 12,12 (34.3) n (%)
same,"Non-responder, UAS7 reduction from baseline of 10 points or more","400 mg BID, ITT population",23 (56.1) n (%)
same,"OR for rilzabrutinib vs. placebo, UAS7 reduction of 10 points or more","400 mg BID, ITT population",2.607
same,"RRD (%) for rilzabrutinib vs. placebo, UAS7 reduction of 10 points or more","400 mg BID, ITT population",20.0 %
same,"Responder, UAS7 reduction from baseline of 10 points or more","400 mg BID, ITT population",18 (43.9) n (%)
same,UAS7 Change from baseline Mean (SD),"400 mg BID, Omalizumab-Naïve",−9.96 (8.81)
same,UAS7 Change from baseline Median,"400 mg BID, Omalizumab-Naïve",−9.00
same,UAS7 Mean (SD),"400 mg BID, Omalizumab-Naïve",19.77 (11.32)
same,UAS7 Median,"400 mg BID, Omalizumab-Naïve",21.00
same,UAS7 Percent change from baseline Mean (SD),"400 mg BID, Omalizumab-Naïve",−35.41 (33.69) %
same,UAS7 Percent change from baseline Median,"400 mg BID, Omalizumab-Naïve",−26.19%
same,UAS7 Change from baseline Mean (SD),[1],−11.83 (12.14)
same,UAS7 Change from baseline Median,[1],−7.50
same,UAS7 Median,[1],23.50
same,UAS7 Percent change from baseline Mean (SD),[1],−35.59 (37.55) %
same,UAS7 Percent change from baseline Median,[1],−20.53%
same,"Non-responder, UAS7 reduction from baseline of 10 points or more",[2],19 (54.3) n (%)
same,"OR for rilzabrutinib vs. placebo, UAS7 reduction of 10 points or more",[2],2.862
same,"RRD (%) for rilzabrutinib vs. placebo, UAS7 reduction of 10 points or more",[2],22.3 %
same,"Responder, UAS7 reduction from baseline of 10 points or more",[2],16 (45.7) n (%)
same,"Non-responder, UAS7 reduction from baseline of 10 points or more","400 mg QPM, ITT population",26 (68.4) n (%)
same,"OR for rilzabrutinib vs. placebo, UAS7 reduction of 10 points or more","400 mg QPM, ITT population",1.672
same,"Responder, UAS7 reduction from baseline of 10 points or more","400 mg QPM, ITT population",12 (31.6) n (%)
same,UAS7 Change from baseline Mean (SD),"400 mg QPM, Omalizumab-Naïve",−7.30 (9.14)
same,UAS7 Change from baseline Median,"400 mg QPM, Omalizumab-Naïve",−6.00
same,UAS7 Mean (SD),"400 mg QPM, Omalizumab-Naïve",23.81 (8.78)
same,UAS7 Median,"400 mg QPM, Omalizumab-Naïve",25.00
same,UAS7 Percent change from baseline Mean (SD),"400 mg QPM, Omalizumab-Naïve",−21.72 (26.65) %
same,UAS7 Percent change from baseline Median,"400 mg QPM, Omalizumab-Naïve",−17.95%
same,UAS7 Change from baseline Mean (SD),[3],−16.00 (NC)
same,UAS7 Change from baseline Median,[3],−16.00
same,UAS7 Mean (SD),[3],25.00 (NC)
same,UAS7 Median,[3],25.00
